ChEMBL document CHEMBL1136572, “Piperazine-based CCR5 antagonists as HIV-1 inhibitors. III: synthesis, antiviral and pharmacokinetic profiles of symmetrical heteroaryl carboxamides” (Bioorg Med Chem Lett, 2003)
Blank lines part the entries; values can stand above or below the compound they belong to.

What was measured:
[1] = system: U-87 MG; experiment: Compound was tested for inhibiting HIV (ADA) entry into cells; Range is 0.2-2.0 nM; type: functional, cell-based, U-87MG ATCC; conditions: Homo sapiens
[2] = molecular target: C-C chemokine receptor type 5 (Homo sapiens, UniProt P51681); experiment: Ability to inhibit [125I]-labeled RANTES binding to the CCR5 receptor expressed in membrane preparations from CHO cells; type: cell membranes
C-C chemokine receptor type 5, sequence (P51681 whole entry): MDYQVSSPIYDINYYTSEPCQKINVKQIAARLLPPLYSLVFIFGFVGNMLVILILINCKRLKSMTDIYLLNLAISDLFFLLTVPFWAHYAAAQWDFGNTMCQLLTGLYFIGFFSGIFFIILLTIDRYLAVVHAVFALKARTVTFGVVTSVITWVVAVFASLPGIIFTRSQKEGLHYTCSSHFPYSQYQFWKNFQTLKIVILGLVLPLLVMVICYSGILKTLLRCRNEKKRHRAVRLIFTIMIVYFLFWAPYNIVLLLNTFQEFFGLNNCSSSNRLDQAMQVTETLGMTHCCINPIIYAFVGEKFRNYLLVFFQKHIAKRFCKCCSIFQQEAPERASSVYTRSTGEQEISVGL

[3] = system: BaF3; experiment: Inhibition of 0.1 nM of MIP-1beta induced migration of recombinant mouse pro-B cell line BA/F3 expressing human CCR5; type: functional, cell-based
[4] = molecular target: T1, Muscarinic acetylcholine receptor M2 (Homo sapiens, UniProt P08172); experiment: Binding affinity towards muscarinic receptor M2
T1 sequence (P08172 whole entry): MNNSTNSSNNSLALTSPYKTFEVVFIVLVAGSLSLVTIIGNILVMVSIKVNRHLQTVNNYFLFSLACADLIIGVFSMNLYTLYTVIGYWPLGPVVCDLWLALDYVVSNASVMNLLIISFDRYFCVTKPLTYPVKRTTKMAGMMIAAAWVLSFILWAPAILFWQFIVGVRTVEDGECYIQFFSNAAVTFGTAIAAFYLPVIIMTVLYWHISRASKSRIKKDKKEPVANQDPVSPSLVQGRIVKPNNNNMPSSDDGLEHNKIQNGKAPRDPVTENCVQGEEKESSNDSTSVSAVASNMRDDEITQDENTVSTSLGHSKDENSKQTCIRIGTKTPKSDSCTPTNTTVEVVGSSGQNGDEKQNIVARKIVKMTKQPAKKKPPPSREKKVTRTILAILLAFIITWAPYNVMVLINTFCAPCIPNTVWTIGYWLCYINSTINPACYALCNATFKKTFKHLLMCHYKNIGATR

[5] = system: U-87 MG; experiment: Tested for inhibiting HIV (ADA) entry into cells; type: functional, cell-based, U-87MG ATCC; conditions: Homo sapiens
[6] = Oral bioavailability evaluated in rat; type: ADME, organism-based; conditions: in vivo
[7] = Compound was tested for inhibition of HIV isolate BCF01 in peripheral blood mononuclear cells (PBMC); type: functional
[8] = Cmax value evaluated in monkey; type: ADME, organism-based; conditions: cercopithecidae, in vivo
[9] = Compound was tested for inhibition of HIV isolate bal (hz) in peripheral blood mononuclear cells (PBMC); type: functional
[10] = Cmax value evaluated in rat; type: ADME, organism-based; conditions: in vivo
[11] = Ratio of AUCbrain to AUCplasma; type: ADME, organism-based; conditions: rat, brain and plasma
[12] = Compound was tested for inhibition of HIV isolate ASM 108 (wt) in peripheral blood mononuclear cells (PBMC); type: functional
[13] = Compound was tested for inhibition of HIV isolate JV 1083 in peripheral blood mononuclear cells (PBMC); type: functional
[14] = Compound was tested for inhibition of HIV isolate YU-2 (hz) in peripheral blood mononuclear cells (PBMC); type: functional
[15] = Compound was tested for inhibition of HIV isolate ASM 108 (hz) in peripheral blood mononuclear cells (PBMC); type: functional
[16] = Compound was tested for inhibition of HIV isolate 301657 (wt) in peripheral blood mononuclear cells (PBMC); type: functional
[17] = Compound was tested for inhibition of HIV isolate US-1 in peripheral blood mononuclear cells (PBMC); type: functional
[18] = molecular target: T1, Muscarinic acetylcholine receptor M2; experiment: Inhibition of binding affinity to muscarinic receptor M2
[19] = Compound was tested for inhibition of HIV isolate 301657 (hz) in peripheral blood mononuclear cells (PBMC); type: functional
[20] = Oral bioavailability evaluated in monkey; type: ADME, organism-based; conditions: cercopithecidae, in vivo
[21] = Compound was tested for inhibition of HIV isolate YU-2 (wt) in peripheral blood mononuclear cells (PBMC); type: functional
[22] = system: Rattus norvegicus; experiment: Dose required for observing cardiovascular effects in rats after peroral administration; type: functional, Heart
[23] = system: U-87 MG; experiment: Compound was tested for inhibiting HIV (ADA) entry into U-87 cells; range is 2-20 nM; type: functional, cell-based, U-87MG ATCC; conditions: Homo sapiens
[24] = system: Rattus norvegicus; experiment: Dose required for observing CNS and GI effects in rats after peroral administration; type: functional
[25] = molecular target: T2, Muscarinic acetylcholine receptor M1 (Homo sapiens, UniProt P11229); experiment: Binding affinity towards muscarinic receptor M1
T2 sequence (P11229 whole entry): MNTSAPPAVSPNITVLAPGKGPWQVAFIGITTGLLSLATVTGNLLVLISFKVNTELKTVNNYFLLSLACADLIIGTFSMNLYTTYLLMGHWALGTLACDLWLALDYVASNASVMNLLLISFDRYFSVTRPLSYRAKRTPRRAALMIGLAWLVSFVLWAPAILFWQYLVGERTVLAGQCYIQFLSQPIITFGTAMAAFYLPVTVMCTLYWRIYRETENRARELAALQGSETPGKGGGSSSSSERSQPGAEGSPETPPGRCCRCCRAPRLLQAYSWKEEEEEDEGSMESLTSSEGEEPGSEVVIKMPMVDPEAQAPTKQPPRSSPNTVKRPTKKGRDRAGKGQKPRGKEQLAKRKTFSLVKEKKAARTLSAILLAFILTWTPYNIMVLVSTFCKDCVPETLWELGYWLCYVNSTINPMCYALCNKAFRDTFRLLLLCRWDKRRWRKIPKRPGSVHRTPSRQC

Compound: Cc1ccnc(C)c1C(=O)N1CCC(C)(N2CCN([C@@H](C)c3ccc(C(F)(F)F)cc3)[C@@H](C)C2)CC1
- IC50 [1]: 0.2 nM
- Ki [2]: 2 nM
- IC50 [3]: 0.03 nM

- Ki [2]: 5.23 nM
- Ki [4]: 1680 nM
Compound: Cc1cncc(C)c1C(=O)N1CCC(C)(N2CCN([C@@H](C)c3ccc(C(F)(F)F)cc3)[C@@H](C)C2)CC1

- Ki [2]: 38 nM
- Ki [4]: 1100 nM
Compound: Cc1nc(N)nc(C)c1C(=O)N1CCC(C)(N2CCN([C@@H](C)c3ccc(C(F)(F)F)cc3)[C@@H](C)C2)CC1

- Ki [2]: 11 nM
- Ki [4]: 202 nM
Compound: COc1nc(C)c(C(=O)N2CCC(C)(N3CCN([C@@H](C)c4ccc(C(F)(F)F)cc4)[C@@H](C)C3)CC2)c(C)n1

Compound: C[C@H]1CN(C2(C)CCN(C(=O)c3c(Cl)cncc3Cl)CC2)CCN1[C@@H](C)c1ccc(C(F)(F)F)cc1
- IC50 [5]: 0.3 nM
- Ki [2]: 0.7 nM
- Ki [4]: 2030 nM

Compound: Cc1c[n+]([O-])cc(C)c1C(=O)N1CCC(C)(N2CCN([C@@H](C)c3ccc(C(F)(F)F)cc3)[C@@H](C)C2)CC1
- IC50 [5]: 0.9 nM
- Ki [2]: 18 nM
- Ki [4]: 255 nM

Compound: Cc1ncnc(C)c1C(=O)N1CCC(C)(N2CCN([C@@H](C)c3ccc(C(F)(F)F)cc3)[C@@H](C)C2)CC1
- IC50 [5]: 0.5 nM
- bioavailability [6]: 97%
- IC50 [7]: 200 nM
- IC90 ([7]; Human immunodeficiency virus 1): > 1000 nM
- Cmax [8]: 340 ng/mL
- IC50 [9]: 6.4 nM
- IC90 ([9]; Human immunodeficiency virus 1): 60 nM
- Cmax [10]: 1490 ng/mL
- Kp [11]: 1.7
- IC50 [12]: 7 nM
- IC90 ([12]; Human immunodeficiency virus 1): 17 nM
- IC50 [13]: 166 nM
- IC90 ([13]; Human immunodeficiency virus 1): > 300 nM
- IC50 [14]: 1.3 nM
- IC90 ([14]; Human immunodeficiency virus 1): 100 nM
- IC50 [15]: 0.2 nM
- IC90 ([15]; Human immunodeficiency virus 1): 3 nM
- IC50 [16]: 3.2 nM
- IC90 ([16]; Human immunodeficiency virus 1): 24 nM
- IC50 [17]: 0.7 nM
- IC90 ([17]; Human immunodeficiency virus 1): 4 nM
- Ki [18]: 456 nM
- IC50 [19]: 26.8 nM
- IC90 ([19]; Human immunodeficiency virus 1): > 1000 nM
- bioavailability [20]: 50%
- IC50 [21]: 2.3 nM
- IC90 ([21]; Human immunodeficiency virus 1): 8 nM
- Ki [4]: 456 nM

Compound: Cc1cc[n+]([O-])c(C)c1C(=O)N1CCC(C)(N2CCN([C@@H](C)c3ccc(C(F)(F)F)cc3)[C@@H](C)C2)CC1
- Dose [22]: 10 mg/kg
- IC50 [23]: 2 nM
- Dose [24]: 30 mg/kg
- IC50 [3]: 0.1 nM
- Ki [25]: 350 nM

Compound: C[C@H]1CN(C2(C)CCN(C(=O)c3c(Cl)c[n+]([O-])cc3Cl)CC2)CCN1[C@@H](C)c1ccc(C(F)(F)F)cc1
- IC50 [5]: 0.45 nM
- Ki [2]: 2.7 nM
- Ki [4]: 348 nM

Compound: Cc1nc(C(F)(F)F)nc(C)c1C(=O)N1CCC(C)(N2CCN([C@@H](C)c3ccc(C(F)(F)F)cc3)[C@@H](C)C2)CC1
- IC50 [5]: 0.1 nM
- Ki [2]: 10 nM
- Ki [4]: 613 nM

Compound: Cc1nc(C)c(C(=O)N2CCC(C)(N3CCN([C@@H](C)c4ccc(C(F)(F)F)cc4)[C@@H](C)C3)CC2)c(C)n1
- IC50 [5]: 1.45 nM
- Ki [2]: 10 nM
- Ki [4]: 985 nM

Compound: Cc1nc(-c2ccccc2)nc(C)c1C(=O)N1CCC(C)(N2CCN([C@@H](C)c3ccc(C(F)(F)F)cc3)[C@@H](C)C2)CC1
- IC50 [5]: 1.8 nM
- Ki [2]: 12 nM
- Ki [4]: 1230 nM

Compound: Cc1ncnc(C)c1C(=O)N1CCC(C)(N2CCN([C@@H](C)c3ccc(C#N)cc3)[C@@H](C)C2)CC1
- IC50 [5]: 1.8 nM
- Ki [2]: 20 nM
- Ki [4]: 164 nM

Compound: Cc1ncnc(C)c1C(=O)N1CCC(C)(N2CCN([C@@H](C)c3ccc(OC(F)(F)F)cc3)[C@@H](C)C2)CC1
- IC50 [5]: 1.2 nM
- Ki [2]: 11 nM
- Ki [4]: 68 nM

- Ki [2]: 11 nM
- Ki [4]: 169 nM
Compound: Cc1ncnc(C)c1C(=O)N1CCC(C)(N2CCN([C@@H](C)c3ccc(I)cc3)[C@@H](C)C2)CC1
